Where two headings read alike, the source gives them in different places.
Tests used:
[1] = tested on: P. falciparum liver stage schizont (NF175); test: Liver stage schizont assay in primary human hepatocytes (NF175); type: cell-based; conditions: Plasmodium falciparum, Hepatocyte, 96 h, four days
Experimental: Activity against liver stage parasites was performed using a modification of published procedures. Briefly, cryopreserved human primary hepatocytes (NF175: H1500.H15B+ Lot No. HC0-6, TebuBio or NF135: F00995-P Lot No. IRZ, BioIVT) were thawed and seeded at 18,000 cells per well in collagen-coated 384-well microtiter plates in medium containing 10% heat inactivated fetal bovine serum (hiFBS). Cells were cultured at 37°C in 5% CO2. For NF175, medium was replaced by fresh medium containing 10% hiFBS, 5 h post plating. For NF135, medium was replaced by medium containing 0.2% BSA, 24 h post plating. 48 h post plating, salivary glands from Plasmodium-NF175 or NF135-infected Anopheles stephensi mosquitoes were dissected, added to the hepatocytes (10,000 per well/ NF175; or 12,500 per well/ NF135) and allowed to infect for 3 hours. Sporozoites were then aspirated, and compounds diluted in medium containing 10% hiFBS or 0.2% BSA, were added to the hepatocytes. Medium containing 10% hiFBS or 0.2% BSA and compounds was refreshed daily for four days. […] Cells were imaged on a PicoExpress high content imager, and images were analysed automatically using CellReporterXpress software. Data were analysed by logistic regression using a four-parameter (Hill equation) model and a least-squares method to find the best fit.

[2] = Rat pharmacokinetics; type: in vivo, Sprague-Dawley rats; conditions: for half-life: read-out: T1/2z (converted)
Experimental: Sprague-Dawley rats (11 weeks old) were sourced from Hilltop Lab Animals, Inc (Scottdale, Pennsylvania, USA). […] Blood was collected from a jugular cannula at 0.083, 0.25, 0.5, 1, 2, 4, 8 and 24 h post i.v. dosing, and at the same times (except the 0.083-h sample) following oral administration. A portion of the blood samples were processed into plasma. Samples were precipitated with 0.5% formic acid in methanol and the supernatants were analysed by positive ion electrospray LC-MS for the administered compound. Non-compartmental pharmacokinetic parameters were calculated from individual concentration vs time profiles using Phoenix 64 WinNonlin (Version 8.1 Certara, Princeton NJ).

[3] = tested on: Dd2-B2 parasites; test: Minimum inoculum of resistance (MIR) selection; type: cell-based, Plasmodium falciparum; conditions: for IC50: DD2, read-out: in-house mean IC50; for IC50 fold shift (clones): 3 x IC50
Experimental: MIR studies were conducted for ML901 and ML471 using a modified “Gate keeper assay” [34]. […] For ML901, the parasites (starting parasite inoculums of 1x10^7 or 1x10^8 in triplicate) were subjected to pressure at 3 x IC50, with recrudescence on days 12–14. […] The different pressure regimens reflect the standard protocols in the Fidock lab used at the times of analysis. Wells were monitored daily by smear during the first seven days to ensure parasite clearance, during which media was changed daily. Thereafter, cultures were screened three times weekly by flow cytometry and smearing, and the selection maintained a consistent drug pressure over 60 days. […] Whole-genome sequencing analysis identified CNVs in chromosome 8 segments, always containing the PfTyrRS locus, consistent with our earlier evidence of this as the target of ML901 [16]. Single nucleotide polymorphism (SNP) filtering was lowered to 0.5 allelic balance (AB) but yielded no point mutations in the core genome.

[4] = Solubility; type: physicochemical
[5] = Caco-2 permeability; type: in vitro ADME; conditions: human
Experimental: Permeability studies were performed as described previously. In brief, Caco-2 cells were cultured for 21–25 days to differentiate them into enterocyte-like cells. The transepithelial electrical resistance (TEER) was measured to ensure tight junction formation and cells with TEER value more than 250 ohms.cm^2 were used in the study. On the day of the transport study, cells were washed with warm HBSS buffer and equilibrated with buffer for 60 min. ML471 was added at a concentration of 5 μM (containing 50 μM Lucifer Yellow) into a 24 Transwell cell plate (apical 210 μL and basal 1000 μL) and buffer was added in the receiver side. Cells were incubated at 37°C for 60 min and 120 μL aliquots were taken from the receiver side after 30 and 60 min. Samples were mixed with 100 nM carbutamide in acetonitrile (ACN) containing 0.1% formic acid (internal standard). Samples were centrifuged at 2,056 x g for 10 min and the supernatant was collected and analyzed for quantification of the test article by LC-MS [49].

[6] = male, Sprague-Dawley, IV 1 mg/kg, plasma
[7] = male, Sprague-Dawley, PO 1 mg/kg, plasma
[8] = male, Sprague-Dawley, PO 10 mg/kg, plasma
[9] = male, Sprague-Dawley, PO 25 mg/kg, plasma
[10] = male, Sprague-Dawley, whole blood, IV 1 mg/kg, blood
[11] = male, Sprague-Dawley, whole blood, PO 1 mg/kg, blood
[12] = male, Sprague-Dawley, whole blood, PO 10 mg/kg, blood
[13] = male, Sprague-Dawley, whole blood, PO 25 mg/kg, blood

## CC(C)c1nn([C@@H]2O[C@H](COS(N)(=O)=O)[C@@H](O)[C@H]2O)c2ncnc(N)c12 [ML471, ((2R,3S,4R,5R)-5-(4-amino-3-isopropyl-1H-pyrazolo[3,4-d]pyrimidin-1-yl)-3,4-dihydroxytetrahydrofuran-2-yl)methyl sulfamate]
[1]
  IC50: 2.8 nM
[2]; 0–24 h urine
  dose recovered in 0–24 h urine as parent: 9–38 % of the dose
[2]; 25 mg/kg p.o., blood
  area under the curve: 30 µM·h
[2]; IV dose of 1 mg/kg
  blood clearance as share of liver blood flow: ~ 4 % of liver blood flow
[2]; [6]
  Cmax: 1.54 µM
  Tmax: 0.08 h
  clearance: 3.84 L/h/kg
  half-life: 2.22 h
[2]; [7]
  Cmax: 0.0191 µM
  Tmax: 0.5 h
  half-life: 8.78 h
[2]; male, Sprague-Dawley, PO 1 mg/kg, plasma, read-out: %F
  bioavailability: 27.7%
[2]; [8]
  Cmax: 0.196 µM
  Tmax: 0.38 h
  half-life: 9.15 h
[2]; male, Sprague-Dawley, PO 10 mg/kg, plasma, read-out: %F
  bioavailability: 25.2%
[2]; [9]
  Cmax: 0.393 µM
  Tmax: 0.75 h
  half-life: 3.57 h
[2]; male, Sprague-Dawley, PO 25 mg/kg, plasma, read-out: %F
  bioavailability: 16.4%
[2]; male, Sprague-Dawley, plasma, iv, 1 mg/kg, IV 1 mg/kg, plasma, read-out: Vss
  Vd: 2.79 L/kg
[2]; male, Sprague-Dawley, plasma, iv, 1 mg/kg, IV 1 mg/kg, plasma, read-out: Vz
  Vd: 12.3 L/kg
[2]; male, Sprague-Dawley, whole blood and plasma, intravenous, 1 mg/kg, time 0.083 h
  blood plasma ratio at 0.083 h: 0.8
[2]; male, Sprague-Dawley, whole blood and plasma, intravenous, 1 mg/kg, time 0.25 h
  blood plasma ratio at 0.25 h: 1.5
[2]; male, Sprague-Dawley, whole blood and plasma, intravenous, 1 mg/kg, time 0.5 h
  blood plasma ratio at 0.5 h: 2.1
[2]; male, Sprague-Dawley, whole blood and plasma, intravenous, 1 mg/kg, time 1 h
  blood plasma ratio at 1 h: 5.5
[2]; male, Sprague-Dawley, whole blood and plasma, intravenous, 1 mg/kg, time 2 h
  blood plasma ratio at 2 h: 17.8
[2]; male, Sprague-Dawley, whole blood and plasma, intravenous, 1 mg/kg, time 4 h
  blood plasma ratio at 4 h: 48.9
[2]; male, Sprague-Dawley, whole blood and plasma, intravenous, 1 mg/kg, time 8 h
  blood plasma ratio at 8 h: 114
[2]; male, Sprague-Dawley, whole blood and plasma, iv, 1 mg/kg, i.v. PK study, read-out: blood to plasma ratio at the initial sampling times
  blood plasma ratio: ~1
[2]; [10]
  Cmax: 1.18 µM
  Tmax: 0.17 h
  clearance: 0.138 L/h/kg
  half-life: 36.6 h
[2]; [11]
  Cmax: 0.0393 µM
  Tmax: 16 h
  half-life: 23.2 h
[2]; male, Sprague-Dawley, whole blood, PO 1 mg/kg, blood, read-out: %F
  bioavailability: 9.29%
[2]; [12]
  Cmax: 0.261 µM
  Tmax: 6 h
  half-life: 29.5 h
[2]; male, Sprague-Dawley, whole blood, PO 10 mg/kg, blood, read-out: %F
  bioavailability: 9.56%
[2]; [13]
  Cmax: 0.669 µM
  Tmax: 8 h
[2]; male, Sprague-Dawley, whole blood, PO 25 mg/kg, blood, read-out: %F
  bioavailability: 8.72%
[2]; male, Sprague-Dawley, whole blood, PO 25 mg/kg, blood, terminal half-life, T1/2∞
  half-life: 30.5 h
[2]; male, Sprague-Dawley, whole blood, iv, 1 mg/kg, IV 1 mg/kg, blood, read-out: Vss
  Vd: 6.25 L/kg
[2]; male, Sprague-Dawley, whole blood, iv, 1 mg/kg, IV 1 mg/kg, blood, read-out: Vz
  Vd: 6.54 L/kg
[2]; male, Sprague-Dawley, whole blood, oral, blood, range over doses, read-out: %F (blood), rat oral bioavailability
  bioavailability: 8.72 to 9.56%
[3]; Plasmodium falciparum
  IC50: 1.45 nM
[3]; Plasmodium falciparum, DD2, read-out: mean IC90
  IC90: 1.99 nM
[3]; selection with 2x10^5 parasites, 10 x IC50
  IC50 shift: 9-16 xIC50
[4]
  solubility: > 100 µM
[5]; 5 μM, 60 min, second figure of the cell, read-out: Caco2 Papp (A to B)
  Papp A→B at 60 min, 5 μM: 1.7 nm/s
[5]; 5 μM, 60 min, third figure of the cell, read-out: Caco2 Papp (B to A)
  Papp B→A at 60 min, 5 μM: 13 nm/s
[5]; equals B to A / A to B, read-out: Caco2, first figure of the cell, not given
  efflux ratio at 60 min, 5 μM: 7.6

## Nc1ncnc2c1c(OC(F)F)nn2[C@@H]1O[C@H](COS(N)(=O)=O)[C@@H](O)[C@H]1O [ML901]
[3]; Plasmodium falciparum
  IC50: 2.6 ± 0.05 nM
[3]; selection with 10^7 parasites
  IC50 fold shift (clones): 2-3 x IC50
[3]; selection with 10^8 parasites
  IC50 fold shift (clones): 3-6 x IC50

Source: article PMC11671014 (PLOS Pathogens, 2024)
